One data set has as its system SHP2. Details: method as in PMID 16717135. As to conditions: read-out: IC50, SHP2 (reported); cited from earlier work.
The target of data set [1] is T1, PTP1B (Homo sapiens, UniProt P18031).
T1 construct: purchased Creative Biomart
T1 sequence (P18031 1-435): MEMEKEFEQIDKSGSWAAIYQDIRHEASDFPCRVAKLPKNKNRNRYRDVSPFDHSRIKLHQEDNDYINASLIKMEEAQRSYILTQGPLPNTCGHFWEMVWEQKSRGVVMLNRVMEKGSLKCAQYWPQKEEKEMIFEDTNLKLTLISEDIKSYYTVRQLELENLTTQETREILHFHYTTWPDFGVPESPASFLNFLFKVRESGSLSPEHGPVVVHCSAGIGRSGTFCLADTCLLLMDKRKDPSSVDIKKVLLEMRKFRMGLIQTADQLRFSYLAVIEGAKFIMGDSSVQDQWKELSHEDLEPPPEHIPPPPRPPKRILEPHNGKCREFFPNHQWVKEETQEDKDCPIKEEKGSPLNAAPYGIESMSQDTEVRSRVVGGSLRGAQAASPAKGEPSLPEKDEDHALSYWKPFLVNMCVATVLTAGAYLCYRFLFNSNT
The data set can be described thus: PTP1B in vitro phosphatase assay with pNPP. The class given is biochemical. The method, then:
To examine the capacity of RR601 to inhibit protein-tyrosine phosphatase 1B (PTP1B), (Creative Biomart), activity, an in vitro phosphatase assay was adapted from. Assays with and without inhibitor were performed in Corning 96-well clear bottom plates having a non-binding surface, with a total assay volume of 200 μL. The assay buffer contained 100 mM Tris, 100 mM NaCl, 1 mM EDTA at pH 7.0 and 2.2 mM pNPP as the substrate. […] The reaction was initiated upon addition of 4 μL of a 5.0 μM PTP1B stock, which was dispensed to each of the wells except the blanks using a single channel pipette. The resulting PTPB1 concentration in the assay buffer was 0.1 μM. […] Assays were performed in 96-well plates in a similar manner as reported above. The assay buffer contained 50 mM HEPES (pH 7.4), 2 mM EDTA, 3 mM DTT and 100 mM NaCl. An initial experiment was performed to determine the kinetic parameters of the SHP-2 enzyme. The reaction was initiated with the addition of 4 μL of a 0.35 μM stock SHP-2 enzyme into wells containing 0, 1, 3, 9, 27 and 81 μM pNPP. The SHP-2 assay concentration was 7 nM. Absorbance was recorded every 30 s over a ten minute assay period at a temperature of 25 °C (Additional file 1: Fig. S8). Initial velocities were fit to the Michaelis-Menten equation:1 v=VmaxS/Km+S where v is the initial velocity, V max the maximum velocity, K m the Michaelis constant, and [S] the pNPP concentration. […] Assay buffer contained 7.5 mM pNPP, roughly one-half the value of the Michaelis constant determined from the study above. Reactions were initiated with the addition of 4 μL SHP-2 enzyme, resulting in a final assay enzyme concentration of 7 nM.
(§1) Initial rate values obtained from the plate reader were normalized to percent activity relative to the mean negative control rates. Graphpad Prism 6 software was utilized to calculate a non-linear regression (curve fit) using a variable slope model equation, constraining the top and bottom values to 100% activity and 0% activity, respectively, using the following equation:2 vi=Bottom+Top−Bottom/1+10^logIC50−x*HillSlope where v i is the initial rate.

The target in the next data set is T2, DUSP5 PD(WT) (Homo sapiens, UniProt Q16690).
T2 construct: The DUSP5 phosphatase domain (DUSP5 PD(WT)) gene was synthesized by Blue Heron; made in house
T2 sequence (Q16690 178-319 limits assumed): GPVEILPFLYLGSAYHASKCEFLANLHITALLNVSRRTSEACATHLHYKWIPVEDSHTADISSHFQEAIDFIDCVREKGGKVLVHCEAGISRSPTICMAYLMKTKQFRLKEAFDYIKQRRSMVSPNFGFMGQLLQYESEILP
Nature of the data set: DUSP5 PD(WT) in vitro phosphatase assay with pNPP as substrate. The class given is biochemical. The method, then:
The DUSP5 phosphatase domain (DUSP5 PD(WT)) gene was synthesized by Blue Heron (Bothell, WA) and the protein expressed and purified as previously described. To measure the enzymatic activity of wild type phosphatase domain of DUSP5 {DUSP5 PD(WT)} and the inhibitory capacity of selected compounds, an in vitro phosphatase assay was utilized as previously described. Briefly, assays without and with inhibitors were performed in Greiner 96-well clear bottom plates with a total assay volume of 200 μL. The assay buffer contained 100 mM Tris, 100 mM NaCl, 5 mM MgCl2 • 6H2O and 1 mM dithiothreitol (DTT) at pH 7.5. p-nitrophenyl phosphate (pNPP, Sigma Aldrich) 5 mM was used as the substrate. DUSP5 PD(WT) dephosphorylates pNPP to yield p-nitrophenolate, which absorbs at 405 nm, having an extinction coefficient of 18,000 M^-1 cm^-1. The reaction was initiated by the addition of 4 μL of a 29 μM DUPSP5 PD(WT) enzyme stock and absorbance was monitored at 25 °C over time using a Spectramax M5 microplate reader (Molecular Devices). Blanks contained only buffer and pNPP. Negative controls (without inhibitor) contained assay buffer with pNPP and DUSP5 PD(WT).
Appropriate vehicles were added to the blank and negative control wells. A minimum of three replicate wells was run for each condition and at each inhibitor concentration. The replicate wells were averaged to give a single data point. The reaction was initiated upon addition of 4 μL of a 29 μM enzyme stock which was dispensed to each of the wells except the blanks utilizing a single channel pipette. The resulting DUSP5 PD(WT) concentration in the assay buffer was 0.58 μM. The plate was returned to the plate reader, shaken, and absorbance recorded at 25 °C every thirty seconds over a ten to sixty mins time course. In selected experiments the plate was returned to the plate reader following a 10 mins recording for one or two additional 10 mins absorbance recordings.
as §1
To investigate the mechanism of DUSP5 PD(WT) inhibition by RR601, initial velocity inhibition profiles of RR601 were obtained in a 96-well plate format by measuring DUSP5 PD(WT) initial velocities in assay buffer containing of 1, 3, 9, 27 and 81 mM pNPP and 0, 3, 10, 30 and 75 μM RR601 at each pNPP concentration. Reactions were initiated by the addition of DUSP5 PD(WT) to a final concentration of 0.6 μM in each of the wells, excluding the blank. The data were fitted to a global competitive inhibition model (Graphpad Prism) using the following equation:3 vi=VmaxS/Km1+I/Ki+S where v is the initial velocity, V max the maximum velocity, K m the Michaelis constant, [S] the concentration of pNPP, [I] the concentration of RR601 and K i the inhibition constant.

Data set [2] addresses T1, PTP1B. Details: method as in PMID 16717135. The settings on record: read-out: IC50, PTP1B (reported); cited from earlier work.
A short description of data set [3]: Nephelometry (compound aggregation). The class given is physicochemical. The procedure: Nephelometry was performed to determine the relative propensity of the inhibitor compounds to aggregate in solution, based on the light scattering properties of the molecular aggregates. Compound aggregation can lead to artifact inhibitory effects, thus confounding a study of mechanism of inhibition. Compounds were tested for aggregation in a 96-well plate format, final volume 200 μL, using the phosphatase activity assay buffer at pH 7.5 without added pNPP. […] Eight wells were used for blanks and for each compound concentration. Plates were analyzed at two separate gains to determine if the signals were at saturating levels. Progesterone was used as a positive control for compound aggregation. Data were collected using a BMG […] Plus, equipped with a 635 nm laser.

For the next data set, the target named is T3, SHP-2 (Homo sapiens, UniProt Q06124).
T3 construct: purchased Creative Biomart
T3 sequence (Q06124 1-593): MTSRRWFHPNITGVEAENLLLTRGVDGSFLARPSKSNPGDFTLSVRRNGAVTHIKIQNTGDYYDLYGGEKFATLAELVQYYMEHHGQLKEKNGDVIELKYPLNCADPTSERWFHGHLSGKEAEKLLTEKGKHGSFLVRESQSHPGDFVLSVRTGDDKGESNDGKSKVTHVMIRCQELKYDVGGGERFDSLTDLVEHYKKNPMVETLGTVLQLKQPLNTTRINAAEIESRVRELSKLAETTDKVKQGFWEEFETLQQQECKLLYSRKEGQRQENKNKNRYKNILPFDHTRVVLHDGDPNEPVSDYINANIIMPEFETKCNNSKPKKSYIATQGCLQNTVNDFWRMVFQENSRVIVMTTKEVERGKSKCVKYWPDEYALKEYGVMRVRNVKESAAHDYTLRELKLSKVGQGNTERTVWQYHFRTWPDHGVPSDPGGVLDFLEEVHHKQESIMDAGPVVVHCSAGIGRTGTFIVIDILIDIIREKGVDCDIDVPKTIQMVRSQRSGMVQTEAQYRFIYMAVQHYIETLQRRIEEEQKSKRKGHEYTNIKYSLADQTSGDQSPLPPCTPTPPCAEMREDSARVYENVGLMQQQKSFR
The data set can be described thus: SHP-2 in vitro phosphatase assay with pNPP. The class given is biochemical.
Source text: as §1

The target of the next data set is T4, GST-DUSP5 (Homo sapiens, UniProt Q16690).
T4 construct: this assay was done with full-length protein (containing both domains), and using pERK as substrate; made in house
T4 sequence (Q16690 1-384): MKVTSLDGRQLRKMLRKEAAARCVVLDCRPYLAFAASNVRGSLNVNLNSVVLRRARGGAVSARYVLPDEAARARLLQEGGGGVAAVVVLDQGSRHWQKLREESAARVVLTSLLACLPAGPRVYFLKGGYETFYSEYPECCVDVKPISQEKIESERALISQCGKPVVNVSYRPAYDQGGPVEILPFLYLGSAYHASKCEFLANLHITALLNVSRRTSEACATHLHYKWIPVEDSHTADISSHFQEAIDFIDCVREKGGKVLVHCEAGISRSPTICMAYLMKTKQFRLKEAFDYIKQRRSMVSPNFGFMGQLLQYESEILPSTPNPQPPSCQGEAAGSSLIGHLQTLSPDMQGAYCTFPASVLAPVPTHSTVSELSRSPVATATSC
Nature of the data set: In vitro ERK dephosphorylation (pERK) western blot assay. The class given is biochemical. The settings on record: full-length GST-DUSP5, pERK as substrate; global fit of three experiments.

Structures are written as SMILES. Read-outs that look alike come from different tables or passages of the source.

Results on four molecules are retold here after publication PMC5452347, “Serendipitous discovery of light-induced (In Situ) formation of an Azo-bridged dimeric sulfonated naphthol as a potent PTP1B inhibitor” (BMC Biochemistry, 2017).

Procedure for GST-DUSP5: The protein was diluted in phospho-ERK buffer (30 mM Tris-HCl pH 7.0, 75 mM NaCl, 0.67 mM EDTA, 1 mM DTT, H2O) to a concentration of 1.5–3.0 nM, depending on the purity. […] 5 μL each of GST-DUSP5 and diluted compound concentrations were incubated for 5 mins after which 5 μL of 30 nM ERK2 was added and allowed to incubate for 20 mins. After this time 15 μL SDS-Loading buffer was added to each reaction. Samples were boiled for 5 mins, loaded into lanes of 12% Mini-Protean TGX gels (Bio-Rad Laboratories Inc, Hercules CA), and run at 120 V. Protein samples were then transferred to PVDF western blotting Membranes (Roche Diagnostics, Indianapolis IN) at 90 V for 1 h. Membranes were treated and utilized in the iBind Flex Western Device (Thermo Fisher Scientific, Waltham MA) according to manufacturer protocols. Membranes were probed for total and phospho-ERK using rabbit anti-human p44/42 MAPK and mouse anti-human phospho-p44/42 MAPK primary antibodies and HRP-linked anti-rabbit and anti-mouse secondary antibodies (Cell Signaling Technology Inc, Danvers MA). Images were developed using a FluorChem HD2 imager (Bio-Techne, Minneapolis MN) after application of SuperSignal West Femto and West Pico chemiluminescent substrate (Thermo Fisher Scientific).
Densitometry analysis of western blot images was performed using ImageJ software. […]

Turning to `O=S(=O)(O)c1ccc2cc(N=Nc3cc(S(=O)(=O)O)c4cccnc4c3O)ccc2c1` [NSC-87877], the IC50 was […] in the data set with SHP2; 723 ± 302 µM on PTP1B [1] (pNPP, continuous monitoring over 60 min, read-out: IC50, PTP1B, after 50 mins of the reaction assay); 337 ± 130 µM at PTP1B [1] (pNPP, continuous monitoring over 60 min, read-out: IC50, PTP1B, after 60 mins of the reaction assay); over 3000 µM at DUSP5 PD(WT) (pNPP, at 60 minutes, 0.1 to 300 μM, read-out: IC50, DUSP5 PD(WT)); 1.7 µM on PTP1B [2]. For the same molecule, the “Inhibition of PTP1B activity, initially” value at PTP1B [1] (0.1 to 300 μM, start of assay) is “did not initially inhibit”. The “IC50, DUSP5 PD(WT)” value against DUSP5 PD(WT) (pNPP, at 60 minutes, 0.1 to 300 μM) is listed as “did not inhibit”.
On to `Nc1cccc2c(O)cc(S(=O)(=O)O)cc12` [RR535, 1-amino-5-naphthol-7-sulfonic acid], for which the “Compound aggregation over the concentration range tested (nephelometry)” value in data set [3] (1 to 300 μM, stocks stored in the dark or exposed to room light for seventeen days) is given as “little or no measurable aggregation”.
Regarding `O=S(=O)(O)c1cc(O)c2cccc(/N=N/c3cccc4c(O)cc(S(=O)(=O)O)cc34)c2c1` [RR601], the IC50 is 2.1 ± 0.2 µM at PTP1B [1] (pNPP 2.2 mM, 10 min recording, ± SE, read-out: IC50, PTP1B); 36.5 ± 1.5 µM on DUSP5 PD(WT) (MP Biomedicals and RR535 stocks exposed to light 90 days, RR601 freshly prepared, pNPP, ± SE, read-out: DUSP5 PD(WT) inhibitor IC50, assay reaction period 15 – 25 min); 36 µM at DUSP5 PD(WT) (pNPP substrate, read-out: IC50, DUSP5 PD(WT) (summary value)); 36.9 ± 3.9 µM at DUSP5 PD(WT) (read-out: DUSP5 PD(WT) inhibitor IC50, assay reaction period 0 – 10 min, MP Biomedicals and RR535 stocks exposed to light 90 days, RR601 freshly prepared, pNPP, ± SE); 34.5 ± 1.4 µM at DUSP5 PD(WT) (read-out: DUSP5 PD(WT) inhibitor IC50, assay reaction period 30 – 40 min, MP Biomedicals and RR535 stocks exposed to light 90 days, RR601 freshly prepared, pNPP, ± SE); 1.1 ± 0.1 µM against SHP-2 (pNPP 7.5 mM, 10 min reaction, ± SE). The molecule also returned an IC50 against GST-DUSP5 of 4.8 µM. The “Selectivity for PTP1B versus DUSP5” value on PTP1B [1] (ratio of IC50 values) was 18 fold. Further, the “Vmax of DUSP5 PD(WT), Lineweaver-Burk” value at DUSP5 PD(WT) (in the presence of 3 µM RR601) was determined as 0.54 µM/min; at DUSP5 PD(WT) (in the presence of 10 µM RR601), 0.61 µM/min; at DUSP5 PD(WT) (in the presence of 30 µM RR601) it was 0.62 µM/min; at DUSP5 PD(WT) (in the presence of 75 µM RR601) it was 0.69 µM/min. The “Mechanism of DUSP5 PD(WT) inhibition” value on DUSP5 PD(WT) (initial velocity studies varying pNPP and RR601) was “competitive inhibitor”. For the same molecule, the Ki on SHP-2 (1-30 mM pNPP, 0-3.0 µM RR601, ± SE, read-out: Ki, SHP-2, global competitive model fit) was determined as 0.38 ± 0.05 µM. At SHP-2 (substrate concentrations less than 30 mM), the “Mechanism of SHP-2 inhibition” value is “fit best to a competitive inhibition model”.
With `CC(=O)[C@H]1CC[C@H]2[C@@H]3CCC4=CC(=O)CC[C@]4(C)[C@H]3CC[C@]12C` [progesterone, reference compound], the “Concentration at which aggregation begins (nephelometry)” value in data set [3] (phosphatase assay buffer pH 7.5 without pNPP) is “approximately 100 μM”.
